Experimental data: ChEMBL document CHEMBL3045375, “Synthesis, characterization and biological activity of some new carbostyril bearing 1H-pyrazole moiety” (2012)
In brackets after ≈: the same amount, converted by molar mass.

Experiments:
Type in all cases: functional
Escherichia coli = assay: Antibacterial activity against Escherichia coli MTCC 443 after 24 hr by broth microdilution method; conditions: MTCC 443, 24 h
Bacillus subtilis = assay: Antibacterial activity against Bacillus subtilis MTCC 441 after 24 hr by broth microdilution method
Streptococcus pneumoniae = assay: Antibacterial activity against Streptococcus pneumoniae MTCC 1936 after 24 hr by broth microdilution method; conditions: MTCC 1936, 24 h
Candida albicans = assay: Antifungal activity against Candida albicans MTCC 227 after 48 hr by broth microdilution method
Aspergillus fumigatus = assay: Antifungal activity against Aspergillus fumigatus MTCC 3008 after 48 hr by broth microdilution method

Row | Compound | MIC (Escherichia coli) | MIC (Bacillus subtilis; MTCC 441, 24 h) | MIC (Streptococcus pneumoniae) | MIC (Bacillus subtilis) | MIC (Candida albicans; MTCC 227, 48 h) | MIC (Aspergillus fumigatus; MTCC 3008, 48 h) | MIC (Candida albicans) | MIC (Aspergillus fumigatus)
1 | CC1(C)S[C@@H]2[C@H](NC(=O)[C@H](N)c3ccccc3)C(=O)N2[C@H]1C(=O)O [AMPICILLIN] | 100 µg/mL (≈ 286 µM) | 0.25 µg/mL (≈ 0.715 µM) | 100 µg/mL (≈ 286 µM) |  |  |  |  | 
2 | GENTAMICIN |  |  |  | 0.001 µg/mL |  |  |  | 
3 | CC1(C)CC(=O)C2=C(C1)N(c1ccc(F)cc1)C(=O)CC2c1cn(-c2ccccc2)nc1-c1ccc([N+](=O)[O-])cc1 (centres undefined) | 100 µg/mL (≈ 182 µM) | 0.25 µg/mL (≈ 0.454 µM) | 250 µg/mL (≈ 454 µM) |  | 1000 µg/mL (≈ 1820 µM) | 1000 µg/mL (≈ 1820 µM) |  | 
4 | O=C1CCCC2=C1C(c1cn(-c3ccccc3)nc1-c1ccccc1)CC(=O)N2c1ccc(F)cc1 (centres undefined) | 500 µg/mL (≈ 1050 µM) | 0.5 µg/mL (≈ 1.05 µM) | 500 µg/mL (≈ 1050 µM) |  | > 1000 µg/mL | > 1000 µg/mL |  | 
5 | O=C1CCCC2=C1C(c1cn(-c3ccccc3)nc1-c1ccc(F)cc1)CC(=O)N2c1ccc(F)cc1 (centres undefined) | 250 µg/mL (≈ 505 µM) | 0.1 µg/mL (≈ 0.202 µM) | 200 µg/mL (≈ 404 µM) |  | 500 µg/mL (≈ 1010 µM) | 1000 µg/mL (≈ 2020 µM) |  | 
6 | CC1(C)CC(=O)C2=C(C1)N(c1ccc(F)cc1)C(=O)CC2c1cn(-c2ccccc2)nc1-c1ccc(F)cc1 (centres undefined) | 150 µg/mL (≈ 286 µM) | 0.5 µg/mL (≈ 0.955 µM) | 500 µg/mL (≈ 955 µM) |  | 500 µg/mL (≈ 955 µM) | 1000 µg/mL (≈ 1910 µM) |  | 
7 | CC1(C)CC(=O)C2=C(C1)N(c1ccc(F)cc1)C(=O)CC2c1cn(-c2ccccc2)nc1-c1ccccc1 (centres undefined) | 500 µg/mL (≈ 989 µM) | 0.2 µg/mL (≈ 0.396 µM) | 150 µg/mL (≈ 297 µM) |  | 500 µg/mL (≈ 989 µM) | 500 µg/mL (≈ 989 µM) |  | 
8 | O=C1CCCC2=C1C(c1cn(-c3ccccc3)nc1-c1ccc([N+](=O)[O-])cc1)CC(=O)N2c1ccc(F)cc1 (centres undefined) | 62.5 µg/mL (≈ 120 µM) | 0.2 µg/mL (≈ 0.383 µM) | 100 µg/mL (≈ 191 µM) |  | 500 µg/mL (≈ 957 µM) | 1000 µg/mL (≈ 1910 µM) |  | 
9 | O=C(O)c1cn(C2CC2)c2cc(N3CCNCC3)c(F)cc2c1=O [CIPROFLOXACIN] | 25 µg/mL (≈ 75.4 µM) | 0.05 µg/mL (≈ 0.151 µM) | 50 µg/mL (≈ 151 µM) |  |  |  |  | 
10 | O=C(N[C@H](CO)[C@H](O)c1ccc([N+](=O)[O-])cc1)C(Cl)Cl [CHLORAMPHENICOL] | 50 µg/mL (≈ 155 µM) | 0.05 µg/mL (≈ 0.155 µM) | 50 µg/mL (≈ 155 µM) |  |  |  |  | 
11 | O=C1CCCC2=C1C(c1cn(-c3ccccc3)nc1-c1ccc(Cl)cc1)CC(=O)N2c1ccc(F)cc1 (centres undefined) | 100 µg/mL (≈ 195 µM) | 0.25 µg/mL (≈ 0.488 µM) | 250 µg/mL (≈ 488 µM) |  | 500 µg/mL (≈ 977 µM) | > 1000 µg/mL |  | 
12 | COc1ccc(-c2nn(-c3ccccc3)cc2C2CC(=O)N(c3ccc(F)cc3)C3=C2C(=O)CCC3)cc1 (centres undefined) | 100 µg/mL (≈ 197 µM) | 0.5 µg/mL (≈ 0.985 µM) | 250 µg/mL (≈ 493 µM) |  | 1000 µg/mL (≈ 1970 µM) | 500 µg/mL (≈ 985 µM) |  | 
13 | Cc1ccc(-c2nn(-c3ccccc3)cc2C2CC(=O)N(c3ccc(F)cc3)C3=C2C(=O)CCC3)cc1 (centres undefined) | 250 µg/mL (≈ 509 µM) | 0.25 µg/mL (≈ 0.509 µM) | 100 µg/mL (≈ 203 µM) |  | 1000 µg/mL (≈ 2030 µM) | 500 µg/mL (≈ 1020 µM) |  | 
14 | O=C1CCCC2=C1C(c1cn(-c3ccccc3)nc1-c1cccs1)CC(=O)N2c1ccc(F)cc1 (centres undefined) | 100 µg/mL (≈ 207 µM) | 0.25 µg/mL (≈ 0.517 µM) | 200 µg/mL (≈ 414 µM) |  | 500 µg/mL (≈ 1030 µM) | 1000 µg/mL (≈ 2070 µM) |  | 
15 | O=C1CCCC2=C1C(c1cn(-c3ccccc3)nc1-c1ccc(Br)cc1)CC(=O)N2c1ccc(F)cc1 (centres undefined) | 62.5 µg/mL (≈ 112 µM) | 0.5 µg/mL (≈ 0.899 µM) | 250 µg/mL (≈ 449 µM) |  | 500 µg/mL (≈ 899 µM) | > 1000 µg/mL |  | 
16 | CC1(C)CC(=O)C2=C(C1)N(c1ccc(F)cc1)C(=O)CC2c1cn(-c2ccccc2)nc1-c1ccc(Cl)cc1 (centres undefined) | 50 µg/mL (≈ 92.6 µM) | 0.15 µg/mL (≈ 0.278 µM) | 250 µg/mL (≈ 463 µM) |  | 1000 µg/mL (≈ 1850 µM) | 500 µg/mL (≈ 926 µM) |  | 
17 | NYSTATIN |  |  |  |  |  |  | 100 µg/mL | 100 µg/mL
18 | CC1(C)CC(=O)C2=C(C1)N(c1ccc(F)cc1)C(=O)CC2c1cn(-c2ccccc2)nc1-c1cccs1 (centres undefined) | 200 µg/mL (≈ 391 µM) | 0.25 µg/mL (≈ 0.489 µM) | 500 µg/mL (≈ 977 µM) |  | 500 µg/mL (≈ 977 µM) | 1000 µg/mL (≈ 1950 µM) |  | 
19 | Cc1ccc(-c2nn(-c3ccccc3)cc2C2CC(=O)N(c3ccc(F)cc3)C3=C2C(=O)CC(C)(C)C3)cc1 (centres undefined) | 500 µg/mL (≈ 962 µM) | 0.5 µg/mL (≈ 0.962 µM) | 100 µg/mL (≈ 192 µM) |  | 500 µg/mL (≈ 962 µM) | 500 µg/mL (≈ 962 µM) |  | 
20 | COC1=CC(=O)C[C@@H](C)[C@]12Oc1c(Cl)c(OC)cc(OC)c1C2=O [GRISEOFULVIN] |  |  |  |  | 500 µg/mL (≈ 1420 µM) | 100 µg/mL (≈ 283 µM) |  | 
21 | CC1(C)CC(=O)C2=C(C1)N(c1ccc(F)cc1)C(=O)CC2c1cn(-c2ccccc2)nc1-c1ccc(Br)cc1 (centres undefined) | 500 µg/mL (≈ 855 µM) | 0.5 µg/mL (≈ 0.855 µM) | 250 µg/mL (≈ 428 µM) |  | 100 µg/mL (≈ 171 µM) | 100 µg/mL (≈ 171 µM) |  | 
22 | COc1ccc(-c2nn(-c3ccccc3)cc2C2CC(=O)N(c3ccc(F)cc3)C3=C2C(=O)CC(C)(C)C3)cc1 (centres undefined) | 250 µg/mL (≈ 467 µM) | 0.2 µg/mL (≈ 0.373 µM) | 100 µg/mL (≈ 187 µM) |  | 1000 µg/mL (≈ 1870 µM) | 1000 µg/mL (≈ 1870 µM) |  | 
